Holding throughout (format): binding
The target in test [1] is T1, YdiU^475 (Escherichia coli, UniProt P77649).
T1 sequence (P77649 1-475): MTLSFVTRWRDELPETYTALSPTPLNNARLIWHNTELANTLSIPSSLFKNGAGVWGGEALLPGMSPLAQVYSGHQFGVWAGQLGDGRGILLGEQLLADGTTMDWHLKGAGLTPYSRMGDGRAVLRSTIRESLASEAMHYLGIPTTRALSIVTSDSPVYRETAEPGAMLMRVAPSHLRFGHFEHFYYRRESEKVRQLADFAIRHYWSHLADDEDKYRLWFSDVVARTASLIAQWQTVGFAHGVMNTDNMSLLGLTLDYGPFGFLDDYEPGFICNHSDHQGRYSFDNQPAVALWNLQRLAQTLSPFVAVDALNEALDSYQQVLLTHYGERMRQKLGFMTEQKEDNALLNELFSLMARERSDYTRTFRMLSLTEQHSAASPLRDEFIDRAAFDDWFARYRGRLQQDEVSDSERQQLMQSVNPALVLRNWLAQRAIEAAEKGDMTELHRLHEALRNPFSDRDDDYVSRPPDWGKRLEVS
The experiment in a line: SPR.

Test [2] has as its target T1, YdiU^475. The experiment in a line: X-ray crystal structure. To be noted: Mg2+, active site.
The target in test [3] is T1, YdiU^475. The experiment in a line: DSF on Uncle platform. Particulars: 2 mM Mn2+, Tm of complex, not a shift, apo 38.3 °C (with 5 mM EDTA).

On to `Nc1ncnc2c1ncn2[C@@H]1O[C@H](COP(=O)(O)OP(=O)(O)NP(=O)(O)O)[C@@H](O)[C@H]1O` [AMPNPP], for which the Kd (as a rule, the equilibrium constant for the complex coming apart) on YdiU^475 [1] was about 18 µM. Take `Nc1ncnc2c1ncn2[C@@H]1O[C@H](COP(=O)(O)O)[C@@H](O)[C@H]1O` [AMP]: the X-ray crystal structure at YdiU^475 [2] (together with imidodiphosphate) is listed as 6III (YdiU-AMP-imidodiphosphonic acid). As for `Nc1ncnc2c1ncn2[C@@H]1O[C@H](COP(=O)(O)OP(=O)(O)OP(=O)(O)O)[C@@H](O)[C@H]1O` [ATP], the Tm1 at YdiU^475 [3] (1 mM ATP) was 50.3 °C. Molecule `O=c1ccn([C@@H]2O[C@H](COP(=O)(O)NP(=O)(O)OP(=O)(O)O)[C@@H](O)[C@H]2O)c(=O)[nH]1` [UMPNPP] came in with a Kd on YdiU^475 [1] of about 0.14 µM. `O=c1ccn([C@@H]2O[C@H](COP(=O)(O)OP(=O)(O)OP(=O)(O)O)[C@@H](O)[C@H]2O)c(=O)[nH]1` [UTP]: at YdiU^475 [3] (1 mM UTP), the Tm1 is 40.6 °C. Consider `O=P(O)(O)NP(=O)(O)O` [imidodiphosphonic acid], for which the X-ray crystal structure at YdiU^475 [2] (together with AMP) is 6III (YdiU-AMP-imidodiphosphonic acid).

(Values after article doi:10.1101/692707v2 (biorxiv, 2020).)
